Experimental data as given in US10660877B2 (BRISTOL-MYERS SQUIBB COMPANY, priority 2016, dated 2020).
Read-outs that look alike come from different tables or passages of the source.

Tests used:
human TLR7 = human TLR7 (Homo sapiens (Human), UniProt Q9NYK1); assay: TLR7 inhibition reporter assay (HEK-Blue cells, SEAP reporter, gardiquimod stimulation); assay type: cell-based
human TLR9 = human TLR9 (Homo sapiens (Human), UniProt Q9NR96); assay: TLR9 inhibition reporter assay (HEK-Blue cells, SEAP reporter, ODN2006 stimulation);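 further: compounds tested over 0.05 nM to 50 µM, 22 h incubation, inhibition taken as SEAP signal drop from agonist plus DMSO wells toward a known inhibitor control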
human TLR9, sequence (Q9NR96 26-1032): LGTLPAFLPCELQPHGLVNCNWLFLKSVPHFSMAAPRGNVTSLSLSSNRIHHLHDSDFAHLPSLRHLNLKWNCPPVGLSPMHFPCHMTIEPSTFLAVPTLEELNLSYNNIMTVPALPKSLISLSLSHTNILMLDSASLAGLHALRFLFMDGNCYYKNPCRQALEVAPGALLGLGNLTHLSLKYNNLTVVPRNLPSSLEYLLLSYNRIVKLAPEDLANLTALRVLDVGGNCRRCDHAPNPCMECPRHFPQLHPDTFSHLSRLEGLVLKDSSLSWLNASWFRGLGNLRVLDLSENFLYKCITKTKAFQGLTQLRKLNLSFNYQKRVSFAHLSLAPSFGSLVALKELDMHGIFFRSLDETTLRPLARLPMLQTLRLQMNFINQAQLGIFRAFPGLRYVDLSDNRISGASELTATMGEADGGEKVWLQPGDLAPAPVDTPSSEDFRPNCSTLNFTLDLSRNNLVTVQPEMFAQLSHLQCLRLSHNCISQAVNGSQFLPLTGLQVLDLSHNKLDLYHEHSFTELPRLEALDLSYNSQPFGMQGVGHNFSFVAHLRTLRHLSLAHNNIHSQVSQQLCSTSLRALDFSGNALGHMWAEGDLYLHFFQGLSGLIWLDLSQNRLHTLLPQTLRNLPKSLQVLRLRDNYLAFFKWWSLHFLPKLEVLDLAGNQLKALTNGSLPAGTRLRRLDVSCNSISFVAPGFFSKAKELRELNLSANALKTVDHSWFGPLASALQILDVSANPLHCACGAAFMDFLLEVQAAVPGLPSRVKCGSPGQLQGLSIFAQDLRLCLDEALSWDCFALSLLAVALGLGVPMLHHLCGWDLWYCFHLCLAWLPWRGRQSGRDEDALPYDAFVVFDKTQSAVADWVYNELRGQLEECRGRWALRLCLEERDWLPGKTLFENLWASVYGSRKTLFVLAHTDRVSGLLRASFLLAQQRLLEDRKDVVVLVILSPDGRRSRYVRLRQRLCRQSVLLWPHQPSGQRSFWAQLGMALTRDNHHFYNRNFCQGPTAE

human TLR8 = human TLR8 (Homo sapiens (Human), UniProt Q9NR97); assay: TLR8 inhibition reporter assay (HEK-Blue cells, SEAP reporter, R848 stimulation);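 further: compounds tested from 0.05 nM to 50 µM, 22 h at 37 °C, SEAP measured with HEK-Blue Detection, inhibition relative to agonist plus DMSO versus a known inhibitor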
human TLR8, sequence (Q9NR97 27-1041): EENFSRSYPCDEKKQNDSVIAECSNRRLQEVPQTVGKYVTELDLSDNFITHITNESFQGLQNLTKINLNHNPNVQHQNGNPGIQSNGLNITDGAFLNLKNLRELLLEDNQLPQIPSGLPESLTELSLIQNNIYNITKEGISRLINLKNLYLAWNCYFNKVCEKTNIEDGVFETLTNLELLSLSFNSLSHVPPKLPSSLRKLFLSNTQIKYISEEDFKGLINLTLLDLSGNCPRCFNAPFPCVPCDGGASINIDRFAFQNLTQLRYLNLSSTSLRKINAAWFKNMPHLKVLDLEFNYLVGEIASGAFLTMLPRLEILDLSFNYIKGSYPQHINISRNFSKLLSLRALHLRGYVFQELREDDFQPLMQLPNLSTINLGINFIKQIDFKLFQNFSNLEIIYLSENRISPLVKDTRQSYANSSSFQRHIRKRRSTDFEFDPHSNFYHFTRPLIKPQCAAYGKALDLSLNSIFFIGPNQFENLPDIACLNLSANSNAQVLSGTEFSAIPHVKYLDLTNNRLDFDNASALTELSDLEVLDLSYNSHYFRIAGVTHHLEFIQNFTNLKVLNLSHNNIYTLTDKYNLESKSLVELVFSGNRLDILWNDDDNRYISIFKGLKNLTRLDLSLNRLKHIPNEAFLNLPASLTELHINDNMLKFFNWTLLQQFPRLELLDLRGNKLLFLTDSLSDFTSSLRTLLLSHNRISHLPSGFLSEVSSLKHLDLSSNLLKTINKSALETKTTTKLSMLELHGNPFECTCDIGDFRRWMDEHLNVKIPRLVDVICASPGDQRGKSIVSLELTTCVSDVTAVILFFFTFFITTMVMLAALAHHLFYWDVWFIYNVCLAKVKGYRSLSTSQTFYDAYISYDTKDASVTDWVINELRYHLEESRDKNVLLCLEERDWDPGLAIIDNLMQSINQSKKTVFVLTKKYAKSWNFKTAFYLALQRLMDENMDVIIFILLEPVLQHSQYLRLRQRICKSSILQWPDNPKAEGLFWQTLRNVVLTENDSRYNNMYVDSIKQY

[1] = HEK-Blue cells overexpressing human TLR7, gardiquimod 7.5 μM
[2] = read-out: TLR9 IC50, HEK-Blue cells overexpressing human TLR9, ODN2006 5 nM
[3] = read-out: TLR8 IC50, HEK-Blue cells overexpressing human TLR8, R848 15.9 μM
[4] = HEK-Blue cells, gardiquimod 7.5 μM
[5] = read-out: TLR9 IC50, HEK-Blue cells, ODN2006 5 nM
[6] = read-out: TLR8 IC50, HEK-Blue cells, R848 15.9 μM

human TLR7, sequence (Q9NYK1 27-1049): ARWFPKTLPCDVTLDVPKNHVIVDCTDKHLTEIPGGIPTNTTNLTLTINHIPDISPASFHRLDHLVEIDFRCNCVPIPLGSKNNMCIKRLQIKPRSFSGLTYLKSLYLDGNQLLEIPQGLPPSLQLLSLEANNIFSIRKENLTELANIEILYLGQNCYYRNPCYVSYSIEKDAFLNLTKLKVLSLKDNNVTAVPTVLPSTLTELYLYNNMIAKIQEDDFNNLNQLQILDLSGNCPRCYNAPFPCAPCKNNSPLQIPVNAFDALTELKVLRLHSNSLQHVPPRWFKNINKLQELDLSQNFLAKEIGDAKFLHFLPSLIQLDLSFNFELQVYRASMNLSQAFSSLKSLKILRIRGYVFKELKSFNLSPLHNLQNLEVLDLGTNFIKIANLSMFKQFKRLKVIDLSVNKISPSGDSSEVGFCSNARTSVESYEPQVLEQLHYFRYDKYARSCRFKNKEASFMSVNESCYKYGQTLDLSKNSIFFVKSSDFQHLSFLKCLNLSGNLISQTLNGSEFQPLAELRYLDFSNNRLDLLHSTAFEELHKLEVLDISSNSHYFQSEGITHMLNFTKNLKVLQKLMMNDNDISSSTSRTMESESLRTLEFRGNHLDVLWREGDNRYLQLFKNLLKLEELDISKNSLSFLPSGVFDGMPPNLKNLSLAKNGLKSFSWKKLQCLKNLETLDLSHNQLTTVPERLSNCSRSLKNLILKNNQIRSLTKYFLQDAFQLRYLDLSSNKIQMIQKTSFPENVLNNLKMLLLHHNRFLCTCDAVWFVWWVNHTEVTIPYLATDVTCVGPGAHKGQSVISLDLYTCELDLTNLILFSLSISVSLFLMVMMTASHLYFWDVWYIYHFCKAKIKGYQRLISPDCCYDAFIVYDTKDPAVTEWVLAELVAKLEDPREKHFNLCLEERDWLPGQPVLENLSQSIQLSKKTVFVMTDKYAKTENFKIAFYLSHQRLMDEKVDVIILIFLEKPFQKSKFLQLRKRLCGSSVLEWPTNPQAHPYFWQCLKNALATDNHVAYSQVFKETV

IC50 (human TLR7; [1]) [nM]	IC50 (human TLR9; [2]) [nM]	IC50 (human TLR8; [3]) [nM]	IC50 (human TLR7; [4]) [nM]	IC50 (human TLR9; [5]) [nM]	IC50 (human TLR8; [6]) [nM]	SMILES
252	894	116	–	–	–	CCc1c(-c2ccnc(C)c2)[nH]c2ccc(C3CCN(C(C)C)CC3)cc12 [Example 672, 3-ethyl-5-(1-isopropylpiperidin-4-yl)-2-(2-methylpyridin-4-yl)-1H-indole]
5.3	1190	6.7	–	–	–	Cc1cc(-c2[nH]c3ccc(C4CCN(Cc5cn(C)nn5)CC4)cc3c2C(C)C)cc(C)n1 [Example 442, 2-(2,6-dimethylpyridin-4-yl)-3-isopropyl-5-(1-((1-methyl-1H-1,2,3-triazol-4-yl)methyl)piperidin-4-yl)-1H-indole]
60.3	10900	269	–	–	–	CNC(=O)CN1CCC(c2ccc3[nH]c(-c4cc(C5CC5)ncc4F)c(C(C)C)c3c2)CC1 [Example 514, 2-(4-(2-(2-cyclopropyl-5-fluoropyridin-4-yl)-3-isopropyl-1H-indol-5-yl)piperidin-1-yl)-N-methylacetamide]
23.3	4820	81.2	–	–	–	Cc1cc(-c2[nH]c3ccc(C4CCN(C)CC4)cc3c2CC(F)F)cc(C)n1 [Example 539, 3-(2,2-difluoroethyl)-2-(2,6-dimethylpyridin-4-yl)-5-(1-methylpiperidin-4-yl)-1H-indole]
–	–	–	1.4	291	2.3	Cc1cc(-c2[nH]c3ccc(C4CCN(CC(O)C(C)C)CC4)cc3c2C(C)C)cc(C)n1 (stereo not drawn) [Example 849, 1-(4-(2-(2,6-dimethylpyridin-4-yl)-3-isopropyl-1H-indol-5-yl)piperidin-1-yl)-3-methylbutan-2-ol]
–	–	–	148	1170	92.9	CCc1c(-c2ccnc(C)c2)[nH]c2ccc(C3CCN(C(=O)NC4CCNCC4)CC3)cc12 [Example 845, 4-(3-ethyl-2-(2-methylpyridin-4-yl)-1H-indol-5-yl)-N-(piperidin-4-yl)piperidine-1-carboxamide]
5.5	992	30.3	–	–	–	Cc1cc(-c2[nH]c3ccc(C4CCN(C(=O)CN(C)C)CC4)cc3c2C(C)C)cc(F)n1 [Example 501, 2-(dimethylamino)-1-(4-(2-(2-fluoro-6-methylpyridin-4-yl)-3-isopropyl-1H-indol-5-yl)piperidin-1-yl)ethan-1-one]
99.6	9940	374	–	–	–	Cc1cc(-c2[nH]c3ccc(C4CCN(C(=O)C5CCOC(C(C)C)C5)CC4)cc3c2C(C)C)ccn1 (stereo not drawn) [Example 598, (4-(3-isopropyl-2-(2-methylpyridin-4-yl)-1H-indol-5-yl)piperidin-1-yl)(2-isopropyltetrahydro-2H-pyran-4-yl)methanone]
2180	1630	550	–	–	–	CCc1c(-c2ccnc(-c3noc(N)n3)c2)[nH]c2ccc(C3CCNCC3)cc12 [Example 65, 3-(4-(3-ethyl-5-(piperidin-4-yl)-1H-indol-2-yl)pyridin-2-yl)-1,2,4-oxadiazol-5-amine]
1.8	1890	3.8	–	–	–	Cc1cc(-c2[nH]c3ccc(C4CCNCC4)cc3c2C(C)C)cc(F)n1 [Example 3, 2-(2-fluoro-6-methylpyridin-4-yl)-3-isopropyl-5-(piperidin-4-yl)-1H-indole]
39	> 50000	162	–	–	–	Cc1cc(-c2[nH]c3ccc(C4CCN(S(C)(=O)=O)CC4)cc3c2C(C)C)ccn1 [Example 550, 3-isopropyl-2-(2-methylpyridin-4-yl)-5-(1-(methylsulfonyl)piperidin-4-yl)-1H-indole]
13	1060	11.7	–	–	–	Cc1cc(-c2[nH]c3ccc(C4CCN(CC(=O)N(C)C)CC4)cc3c2C(C)C)ccn1 [Example 512, 2-(4-(3-isopropyl-2-(2-methylpyridin-4-yl)-1H-indol-5-yl)piperidin-1-yl)-N,N-dimethylacetamide]
4.7	2110	27.6	–	–	–	Cc1cc(-c2[nH]c3ccc(C4CCN(C(=O)CCN(C)C5COC5)CC4)cc3c2C(C)C)cc(C)n1 [Example 589, 1-(4-(2-(2,6-dimethylpyridin-4-yl)-3-isopropyl-1H-indol-5-yl)piperidin-1-yl)-3-(methyl(oxetan-3-yl)amino)propan-1-one]
–	–	–	2.3	398	1.7	Cc1cc(-c2[nH]c3ccc(C4CCN(CC(C)(C)O)CC4)cc3c2C(C)C)cc(C)n1 [Example 848, 1-(4-(2-(2,6-dimethylpyridin-4-yl)-3-isopropyl-1H-indol-5-yl)piperidin-1-yl)-2-methylpropan-2-ol]
12.4	> 50000	61.7	–	–	–	Cc1cc(-c2[nH]c3ccc(C4CCN(C(=O)C5(C(N)=O)CC5)CC4)cc3c2C(C)C)cc(C)n1 [Example 133, 1-(4-(2-(2,6-dimethylpyridin-4-yl)-3-isopropyl-1H-indol-5-yl)piperidine-1-carbonyl)cyclopropane-1-carboxamide]
2.8	3140	3.2	–	–	–	CNC(=O)CN1CCC(c2ccc3[nH]c(-c4cc(C)ncc4F)c(C(C)C)c3c2)CC1 [Example 654, 2-(4-(2-(5-fluoro-2-methylpyridin-4-yl)-3-isopropyl-1H-indol-5-yl)piperidin-1-yl)-N-methylacetamide]

Further lines, the molecule ahead of its results:

SMILES	IC50 (human TLR7; [1]) [nM]	IC50 (human TLR9; [2]) [nM]	IC50 (human TLR8; [3]) [nM]	IC50 (human TLR7; [4]) [nM]	IC50 (human TLR9; [5]) [nM]	IC50 (human TLR8; [6]) [nM]
Cc1cc(-c2[nH]c3ccc(C4CCN(CC(=O)NC5(C)CCOCC5)CC4)cc3c2C(C)C)cc(C)n1 [Example 267, 2-(4-(2-(2,6-dimethylpyridin-4-yl)-3-isopropyl-1H-indol-5-yl)piperidin-1-yl)-N-(4-methyltetrahydro-2H-pyran-4-yl)acetamide]	2.6	348	11.1	–	–	–
Cc1cc(-c2[nH]c3ccc(C4CCN(C(=O)CN(C)C5CCS(=O)(=O)C5)CC4)cc3c2C(C)C)cc(C)n1 (stereo not drawn) [Example 147, 1-(4-(2-(2,6-dimethylpyridin-4-yl)-3-isopropyl-1H-indol-5-yl)piperidin-1-yl)-2-((1,1-dioxidotetrahydrothiophen-3-yl)(methyl)amino)ethan-1-one]	6.7	3840	42.3	–	–	–
Cc1cc(-c2[nH]c3ccc(C4CCN(CC(=O)N(C)CCCO)CC4)cc3c2C(C)C)cc(C)n1 [Example 288, 2-(4-(2-(2,6-dimethylpyridin-4-yl)-3-isopropyl-1H-indol-5-yl)piperidin-1-yl)-N-(3-hydroxypropyl)-N-methylacetamide]	10	1470	34.6	–	–	–
Cc1cc(-c2[nH]c3cc(F)c(C4CCN(CC(=O)N(C)C)CC4)cc3c2C(C)C)c(F)cn1 [Example 836, 2-(4-(6-fluoro-2-(5-fluoro-2-methylpyridin-4-yl)-3-isopropyl-1H-indol-5-yl)piperidin-1-yl)-N,N-dimethylacetamide]	–	–	–	3.9	4730	11.8
Cc1cc(-c2[nH]c3ccc(C4CCN(CC(=O)NC5CCCOC5)CC4)cc3c2C(C)C)cc(C)n1 (stereo not drawn) [Example 279, 2-(4-(2-(2,6-dimethylpyridin-4-yl)-3-isopropyl-1H-indol-5-yl)piperidin-1-yl)-N-(tetrahydro-2H-pyran-3-yl)acetamide]	2.3	512	11	–	–	–
Cc1cc(-c2[nH]c3ccc(C4CCN(C(=O)[C@H]5C[C@H]6CC[C@@H](C5)N6)CC4)cc3c2C(C)C)ccn1 [Example 580, ((1R,3r,5S)-8-azabicyclo[3.2.1]octan-3-yl)(4-(3-isopropyl-2-(2-methylpyridin-4-yl)-1H-indol-5-yl)piperidin-1-yl)methanone]	67.2	508	53.7	–	–	–
Cc1cc(-c2[nH]c3ccc(C4CCN(CC(=O)N5CCC(C)CC5)CC4)cc3c2C(C)C)cc(C)n1 [Example 269, 2-(4-(2-(2,6-dimethylpyridin-4-yl)-3-isopropyl-1H-indol-5-yl)piperidin-1-yl)-1-(4-methylpiperidin-1-yl)ethan-1-one]	3.7	227	19.8	–	–	–
Cc1cc(-c2[nH]c3ccc(C4CCN(C(=O)CN5CC[C@H](N)C5=O)CC4)cc3c2C(C)C)cc(C)n1 [Example 188, (S)-3-amino-1-(2-(4-(2-(2,6-dimethylpyridin-4-yl)-3-isopropyl-1H-indol-5-yl)piperidin-1-yl)-2-oxoethyl)pyrrolidin-2-one]	2.1	972	12.8	–	–	–
Cc1cc(-c2[nH]c3ccc(C4CCN(CC(=O)N5CCS(=O)(=O)CC5)CC4)cc3c2C(C)C)cc(C)n1 [Example 281, 2-(4-(2-(2,6-dimethylpyridin-4-yl)-3-isopropyl-1H-indol-5-yl)piperidin-1-yl)-1-(1,1-dioxidothiomorpholino)ethan-1-one]	1.2	129	2	–	–	–
Cc1cc(-c2[nH]c3ccc(C4CCN(CC(=O)N5CCCC5)CC4)cc3c2C(C)C)cc(C)n1 [Example 242, 2-(4-(2-(2,6-dimethylpyridin-4-yl)-3-isopropyl-1H-indol-5-yl)piperidin-1-yl)-1-(pyrrolidin-1-yl)ethan-1-one]	5.2	1020	24.7	–	–	–
CNC(C)(C)C(=O)N1CCC(c2ccc3[nH]c(-c4cc(C)nc(C)c4)c(C(C)C)c3c2)CC1 [Example 187, 1-(4-(2-(2,6-dimethylpyridin-4-yl)-3-isopropyl-1H-indol-5-yl)piperidin-1-yl)-2-methyl-2-(methylamino)propan-1-one]	1.7	971	10.5	–	–	–
